Results on 1 sequence are retold here after US20250051391A1, “PEPTIDE INHIBITORS AND METHODS FOR INHIBITING PROTEIN AGGREGATION IN NEURONS AND NEURODEGENERATIVE DISEASES” (THE GOVERNING COUNCIL OF THE UNIVERSITY OF TORONTO, priority 2021, published 2025).

Assay [1] relates to rat substantia nigra dopaminergic neurons. Description: AAV A53T a-syn preclinical rat model of PD. It is filed as in vivo. On the procedure: Adult female Sprague-Dawley rats (250-280 g; Envigo) were pair-housed in cages with wood bedding and had access to food and water ad libitum. The animal colony was maintained in a regular 12-h light/dark cycle. All procedures were approved by the University Health Network Animal Care Committee in accordance with guidelines and regulations set by the Canadian Council on Animal Care.
Animals were secured in a stereotactic frame under isoflurane/oxygen anaesthesia and ketoprofen (5 mg/kg) analgesia. The surgical site was shaved and sterilized with iodine/betadine prior to making a 2 cm incision along the midline. The scalp was exposed and a unilateral injection targeting the SN was performed at coordinates AP−5.2 mm, ML−2 mm and DV−7.4 mm with respect to the bregma as a point of reference. For each animal, a total volume of 2 μl of virus was injected at a rate of 0.5 μl/min using a microinjection pump and 10 μl Hamilton syringe with a 26-gauge needle. For A53T groups, 1 μl (low dose) or 1.34 μl (high dose) of AAV1/2-A53T a-syn (5.1×10^12 genomic particles/ml), 0.14 μl of AAV1/2-Pdpep1.3-GFP or scramble1.3-GFP (5.1×10^12 genomic particles/ml) and 0.86 μl or 0.52 μl of sterile PBS was injected; for EV groups, 1 μl (low dose) or 1.34 μl (high dose) of AAV1/2-EV (5.1×10^12 genomic particles/ml) replaced AAV1/2-A53T. For V1S+SV2 groups, 0.58 μl of AAV1/2-V1S (1.1×10^12 genomic particles/ml), 0.58 μl of AAV1/2-SV2 (1.1×10^12 genomic particles/ml), 0.14 μl of AAV1/2-Pdpep1.3-RFP or scramble1.3-RFP (5.1×10^12 genomic particles/ml) and 0.7 μl of sterile PBS was injected; for the YFP groups, 1.16 μl of AAV1/2-YFP (1.1×10^12 genomic particles/ml), 0.14 μl of AAV1/2-Pdpep1.3-RFP or scramble1.3-RFP (5.1×10^12 genomic particles/ml) and 0.7 μl of sterile PBS was injected. At the end of virus injection, the needle remained in place for 5 minutes before gradual removal.
Spontaneous forepaw use was evaluated using the cylinder test 1 day prior to stereotactic AAV injection, at 21 days post-injection and at 41 days post-injection. Following overnight food restriction, individual rats with right paws marked black were placed into a glass cylinder in front of two mirrors and videos recorded. An observer blinded to treatment conditions later scored the videos by recording whether animals used their left or right forepaw to touch the inner glass surface upon rearing. A total of 5 min of video recording was scored and a minimum of 10 total touches was required for data inclusion (61).
Animals were uthanized by transcardial perfusion with heparinised saline under isoflurane/oxygen anaesthesia. Brains were then removed and the ventral part, including the ventral striatum, was snap frozen in liquid dry ice-cooled isopentane. A single 1 mm thick section of the ventral striatum was immediately cut, using a matrix, for high-performance liquid chromatography (HPLC) analysis of biogenic amines. The dorsal part, including the dorsal striatum, STN, and the SN, was immersion-fixed in 4% paraformaldehyde in 0.1M PBS for 2 days and cryo-protected in 30% sucrose in 0.1M PBS solution for another 3 days until the brains sank. For immunofluorescent staining, 40 μm coronal cryosections were then prepared using a sliding microtome (Leica Microsystems Inc.) and 6 series of sections were stored in cryoprotectant (30% glycerol, 30% ethylene glycol, 40% PBS) at −20° C. until use.
Immunofluorescence staining for a-syn, tyrosine hydroxylase and LAMP1 was performed by washing free-floating sections with PBS-T (0.2% Triton X-100) three times for 10 min each at room temperature. Sections were then incubated in blocking solution (1% BSA, 10% normal goat serum in PBS-T) for 1 h. After blocking, sections were incubated with primary antibodies in antibody solution (2% normal goat serum in PBS-T) overnight at RT. Sections were then washed in PBS and incubated with secondary antibodies diluted in antibody solution for 1 h in the dark at room temperature. […]

Assay [2] concerns C. elegans PDE dopaminergic neurons. Description: C. elegans neurite length assay (A30P a-syn). Type of assay: in vivo. The conditions noted are these: A30P human a-syn; RFP-tagged peptide version based on the nematode sequence of CHMP2B. On the procedure: C. elegans strains were grown and maintained under standard conditions at 22-23° (4). BZ555 [dat-1p::gfp] was obtained from the C. elegans Genetics Center (CGC; University of Minnesota, St Paul, MN, USA), TWH1 ([dat-1p::a-syn(A30P), ges-1p::DsRed]; [dat-1p::gfp]) was obtained by crossing BZ555 with A30P a-syn transgenic animals (kindly provided by Dr. Takeshi Iwatsubo, University of Tokyo) (5).
The peptide construct (pPD97.78_osm-6p_TagRFP_wpeptide) was obtained by subcloning the following fragments into NheI and SpeI sites of pPD97.78 (A. Fire): NheI-AgeI […] fragment (2.4 kb) obtained by PCR using primer set 5′-[…]-3′ (SEQ ID NO: 44) and 5′-[…]-3′ (SEQ ID NO: 45) and N2 genomic DNA as a template, AgeI-EcoRI TagRFP fragment obtained by PCR using primer set 5′-gttgaccggt[…]-3′ (SEQ ID NO: 46) and 5′-ggcagaattcga[…]-3′ (SEQ ID NO: 47), EcoRI-SmaI peptide ([…] (SEQ ID NO: 48)) fragment digested from CMV_[…]_worm, SmaI-SpeI unc-54 3′-UTR fragment digested from pPD95.75 (Fire vector). […]
Each plasmid (40 ng/μl) was injected with a co-injection marker, sur-5p::mCherry into TWH1. The animals carrying the extrachromosomal arrays were transferred to new plates, and their progenies were analyzed at the adult stage under a widefield microscope (Zeiss AxioObserver). […]

Where [3] appears, read: higher titer AAV-A53T a-syn, vs Scramble1.3 condition.

Ends that are not written are not given here.

Take DEEIERQLKALG [PDpep1.3]: in assay [1] (higher titer AAV-A53T a-syn, 6 weeks), the “forelimb asymmetry in the cylinder test” value is listed as “comparable to controls”. In addition, the “dopaminergic neurodegeneration in the SN (TH+ cell counts)” value in assay [1] (higher titer AAV-A53T a-syn, 6 weeks post-injection) is recorded as “mitigated”. Besides, in assay [1] (setting [3]), the “striatal levels of DOPAC” value is “restored”, the “striatal levels of HVA” value is given as “restored” and the “striatal levels of dopamine” value is “restored”. In assay [1] (lower titer AAV-A53T a-syn), the “LAMP1-positive puncta in the SN” value is “restored”. Also, in assay [1] (lower titer AAV-A53T a-syn, vs Scramble1.3), the “total a-syn positive area in the SN” value is recorded as “significant reduction”. The “a-syn mean fluorescence intensity in cells positive for TH and GFP” value in assay [1] (rats, low titer AAV-A53T a-syn, AAV-expressed GFP peptide) was found to be 0.335±0.025 RFU. In assay [2], the “neurite shortening of PDE dopaminergic neurons” value was “partially rescued”.
